Laboratory results published in patent publication US20160130259A1, “SUBSTITUTED BENZOFURAN COMPOUNDS AND METHODS OF USE THEREOF FOR THE TREATMENT OF VIRAL DISEASES” (priority 2013, published 2016).

Assays:
HCV replicon genotype 1a = assay: HCV replicon assay, genotype 1a (cell ELISA for NS3/4A); format: cell-based; details: Hepatitis C virus, 96 h, read-out: 1a IC50 (nM)
Experimental: (§1) Measurement of inhibition by compounds was performed using the HCV replicon system. Several different replicons encoding different HCV genotypes or mutations were used. In addition, potency measurements were made using different formats of the replicon assay, including different ways of measurements and different plating formats. See Jan M. Vrolijk et al., A replicons-based bioassay for the measurement of interferons in patients with chronic hepatitis C, 110 J. Virological Methods 201 (2003); Steven S. Carroll et al., Inhibition of Hepatitis C Virus RNA Replication by 2′-Modified Nucleoside Analogs, 278(14) J. Biological Chemistry 11979 (2003). However, the underlying principles are common to all of these determinations, and are outlined below.
(§2) Stable neomycin phosphotransferase encoding replicons-harboring cell lines were used, so all cell lines were maintained under G418 selection prior to the assay. Potency was determined using a cell ELISA assay with an antibody to the replicons encoded NS3/4a protease. See Caterina Trozzi et al., In Vitro Selection and Characterization of Hepatitis C Virus Serine Protease Variants Resistant to an Active-Site Peptide Inhibitor, 77(6) J. Virol. 3669 (2003). To initiate an assay, replicon cells were plated in the presence of a dilution series of test compound in the absence of G418. Typically, the assays were performed in a 96-well plate formate for manual operation, or a 384-well plate format for automated assay. Replicon cells and compound were incubated for 96 hours. At the end of the assay, cells were washed free of media and compound, and the cells were then lysed. RNA was quantified indirectly through detection of replicon-encoded NS3/4A protein levels, through an ELISA-based assay with an antibody specific for NS3/4A. IC50 determinations were calculated as a percentage of a DMSO control by fitting the data to a four-parameter fit function and the data obtained is provided in the table below.
(§3) Data for selected compounds of the present invention was obtained for genotypes 1a and 1b using this method and is provided in the table below: […]

HCV replicon genotype 1b = assay: HCV replicon assay, genotype 1b (cell ELISA for NS3/4A); format: cell-based; details: Hepatitis C virus, 96 h, read-out: 1b IC50 (nM)
Experimental: as §1, §2, §3

| Structure (SMILES) | IC50 (HCV replicon genotype 1a) [nM] | IC50 (HCV replicon genotype 1b) [nM] |
| --- | --- | --- |
| CNC(=O)c1c(-c2ccc(F)cc2)oc2cc(N(C)S(C)(=O)=O)c(-c3cc(-c4cc5c(F)cccc5[nH]4)c(=O)n(C)c3)cc12 [Compound 1, 5-(5-(4-fluoro-1H-indol-2-yl)-1-methyl-6-oxo-1,6-dihydropyridin-3-yl)-2-(4-fluorophenyl)-N-methyl-6-(N-methylmethylsulfonamido)benzofuran-3-carboxamide] | 3.62 | 3.88 |
| CNC(=O)c1c(-c2ccc(F)cc2)oc2cc(N(C)S(C)(=O)=O)c(-c3cc(-c4cc5c(C#N)cccc5[nH]4)c(=O)n(C)c3)cc12 [Compound 2, 5-(5-(4-cyano-1H-indol-2-yl)-1-methyl-6-oxo-1,6-dihydropyridin-3-yl)-2-(4-fluorophenyl)-N-methyl-6-(N-methylmethylsulfonamido)-benzofuran-3-carboxamide] | 2.47 | 2.43 |
| CNC(=O)c1c(-c2ccc(F)cc2)oc2cc(N(C)S(C)(=O)=O)c(-c3cc(-c4cc5c(F)cccc5[nH]4)c(=O)n(C(F)F)c3)cc12 [Compound 3, 5-(1-(difluoromethyl)-5-(4-fluoro-1H-indol-2-yl)-6-oxo-1,6-dihydropyridin-3-yl)-2-(4-fluorophenyl)-N-methyl-6-(N-methylmethyl-sulfonamido)benzofuran-3-carboxamide] | 2.98 | 5.37 |
| CNC(=O)c1c(-c2ccc(F)cc2)oc2cc(N(C)S(C)(=O)=O)c(-c3cc(-c4cnn(-c5ccc(F)cc5)c4)c(=O)n(C)c3)cc12 [Compound 4, 2-(4-fluorophenyl)-5-(5-(1-(4-fluorophenyl)-1H-pyrazol-4-yl)-1-methyl-6-oxo-1,6-dihydropyridin-3-yl)-N-methyl-6-(N-methyl-methylsulfonamido)benzo-furan-3-carboxamide] | 5.71 | 6.81 |
| CNC(=O)c1c(-c2ccc(F)cc2)oc2cc(N(C)S(C)(=O)=O)c(-c3cc(-c4nc5ccccc5o4)c(=O)n(C)c3)cc12 [Compound 5, 5-(5-(benzo[d]oxazol-2-yl)-1-methyl-6-oxo-1,6-dihydropyridin-3-yl)-2-(4-fluorophenyl)-N-methyl-6-(N-methylmethylsulfonamido)benzofuran-3-carboxamide] | 5.82 | 3.71 |
| CNC(=O)c1c(-c2ccc(F)cc2)oc2cc(N(C)S(C)(=O)=O)c(-c3cc(N4Cc5c(F)cccc5C4=O)c(=O)n(C)c3)cc12 [Compound 6, 5-(5-(4-fluoro-1-oxoisoindolin-2-yl)-1-methyl-6-oxo-1,6-dihydropyridin-3-yl)-2-(4-fluorophenyl)-N-methyl-6-(N-methylmethylsulfonamido)benzofuran-3-carboxamide] | 16.5 | 8.38 |
| CNC(=O)c1c(-c2ccc(F)cc2)oc2cc(N(C)S(C)(=O)=O)c(-c3cc(-c4cc5c(F)cccc5n4C)c(=O)n(C)c3)cc12 [Compound 7, 5-(5-(4-fluoro-1-methyl-1H-indol-2-yl)-1-methyl-6-oxo-1,6-dihydropyridin-3-yl)-2-(4-fluorophenyl)-N-methyl-6-(N-methylmethylsulfonamido)benzofuran-3-carboxamide] | 1.55 | 1.1 |
| CNC(=O)c1c(-c2ccc(F)cc2)oc2cc(N(C)S(C)(=O)=O)c(-c3cc(-c4cc5c(F)cccc5n4C)c(=O)n(C(F)F)c3)cc12 [Compound 8, 5-(1-(difluoromethyl)-5-(4-fluoro-1-methyl-1H-indol-2-yl)-6-oxo-1,6-dihydropyridin-3-yl)-2-(4-fluorophenyl)-N-methyl-6-(N-methyl-methylsulfonamido)benzo-furan-3-carboxamide] | 6.45 | 5.95 |
| CNC(=O)c1c(-c2ccc(F)cc2)oc2cc(N(C)S(C)(=O)=O)c(-c3cc(-c4cc5ncccc5o4)c(=O)n(C)c3)cc12 [Compound 9, 2-(4-fluorophenyl)-5-(5-(furo[3,2-b]pyridin-2-yl)-1-methyl-6-oxo-1,6-dihydropyridin-3-yl)-N-methyl-6-(N-methylmethylsulfonamido)benzofuran-3-carboxamide] | 13.4 | 4.16 |
| CNC(=O)c1c(-c2ccc(F)cc2)oc2cc(N(C)S(C)(=O)=O)c(-c3cc(-c4nc5ncccc5o4)c(=O)n(C)c3)cc12 [Compound 10, 2-(4-fluorophenyl)-N-methyl-5-(1-methyl-5-(oxazolo[4,5-b]pyridin-2-yl)-6-oxo-1,6-dihydropyridin-3-yl)-6-(N-methylmethylsulfonamido) benzofuran-3-carboxamide] | 22.7 | 10.1 |
| CNC(=O)c1c(-c2ccc(F)cc2)oc2cc(N(C)S(C)(=O)=O)c(-c3cc(-c4cc5c(F)cccc5[nH]4)cn(C)c3=O)cc12 [Compound 11, 5-(5-(4-fluoro-1H-indol-2-yl)-1-methyl-2-oxo-1,2-dihydropyridin-3-yl)-2-(4-fluorophenyl)-N-methyl-6-(N-methylmethylsulfonamido)benzofuran-3-carboxamide] | 3.84 | 2.67 |
| CNC(=O)c1c(-c2ccc(F)cc2)oc2cc(N(C)S(C)(=O)=O)c(-c3cc(-c4cc5c(C#N)cccc5[nH]4)cn(C)c3=O)cc12 [Compound 12, 5-(5-(4-cyano-1H-indol-2-yl)-1-methyl-2-oxo-1,2-dihydropyridin-3-yl)-2-(4-fluorophenyl)-N-methyl-6-(N-methylmethylsulfonamido) benzofuran-3-carboxamide] | 3.28 | 1.67 |
| CNC(=O)c1c(-c2ccc(F)cc2)oc2cc(N(C)S(C)(=O)=O)c(-c3cc(-c4cc5c(F)cccc5[nH]4)c(=O)n(C)n3)cc12 [Compound 13, 5-(5-(4-fluoro-1H-indol-2-yl)-1-methyl-6-oxo-1,6-dihydropyridazin-3-yl)-2-(4-fluorophenyl)-N-methyl-6-(N-methylmethylsulfonamido)benzofuran-3-carboxamide] | 4.52 | 6.59 |
| CNC(=O)c1c(-c2ccc(F)cc2)oc2cc(N(C)S(C)(=O)=O)c(-c3cc(-c4cc5c(C#N)cccc5[nH]4)c(=O)n(C)n3)cc12 [Compound 14, 5-(5-(4-cyano-1H-indol-2-yl)-1-methyl-6-oxo-1,6-dihydropyridazin-3-yl)-2-(4-fluorophenyl)-N-methyl-6-(N-methylmethylsulfonamido) benzofuran-3-carboxamide] | 3.55 | 4.43 |
| CNC(=O)c1c(-c2ccc(F)cc2)oc2cc(N(C)S(C)(=O)=O)c(-c3cc(-c4cc5ncccc5[nH]4)c(=O)n(C)n3)cc12 [Compound 15, 2-(4-fluorophenyl)-N-methyl-5-(1-methyl-6-oxo-5-(1H-pyrrolo[3,2-b]pyridin-2-yl)-1,6-dihydropyridazin-3-yl)-6-(N-methylmethylsulfonamido) benzofuran-3-carboxamide] | 238 | 81.1 |
| CNC(=O)c1c(-c2ccc(F)cc2)oc2cc(N(C)S(C)(=O)=O)c(-c3cc(-c4cc5c(F)cccc5n4C)c(=O)n(C)n3)cc12 [Compound 16, 5-(5-(4-fluoro-1-methyl-1H-indol-2-yl)-1-methyl-6-oxo-1,6-dihydropyridazin-3-yl)-2-(4-fluorophenyl)-N-methyl-6-(N-methylmethylsulfonamido)benzofuran-3-carboxamide] | 1.38 | 1.38 |
| CNC(=O)c1c(-c2ccc(F)cc2)oc2cc(N(C)S(C)(=O)=O)c(-c3cc(-c4cc5c(C#N)cccc5n4C)c(=O)n(C)n3)cc12 [Compound 17, 5-(5-(4-cyano-1-methyl-1H-indol-2-yl)-1-methyl-6-oxo-1,6-dihydropyridazin-3-yl)-2-(4-fluorophenyl)-N-methyl-6-(N-methylmethylsulfonamido) benzofuran-3-carboxamide] | 2.29 | 4.26 |
| CNC(=O)c1c(-c2ccc(F)cc2)oc2cc(N(C)S(C)(=O)=O)c(-c3cc(-c4cc5c(C#N)cccc5n4CCOC)c(=O)n(C)n3)cc12 [Compound 18, 5-(5-(4-cyano-1-(2-methoxyethyl)-1H-indol-2-yl)-1-methyl-6-oxo-1,6-dihydropyridazin-3-yl)-2-(4-fluorophenyl)-N-methyl-6-(N-methylmethylsulfonamido)benzofuran-3-carboxamide] | 3.15 | 5.02 |
| CNC(=O)c1c(-c2ccc(F)cc2)oc2cc(N(C)S(C)(=O)=O)c(-c3cc(-c4cc5c(F)cccc5[nH]4)nn(C)c3=O)cc12 [Compound 19, 5-(6-(4-fluoro-1H-indol-2-yl)-2-methyl-3-oxo-2,3-dihydropyridazin-4-yl)-2-(4-fluorophenyl)-N-methyl-6-(N-methylmethylsulfonamido)benzofuran-3-carboxamide] | 2.48 | 3.07 |
| CNC(=O)c1c(-c2ccc(F)cc2)oc2cc(N(C)S(C)(=O)=O)c(-c3cn(C)c(=O)c(-c4cc5c(F)cccc5[nH]4)n3)cc12 [Compound 20, 5-(6-(4-fluoro-1H-indol-2-yl)-4-methyl-5-oxo-4,5-dihydropyrazin-2-yl)-2-(4-fluorophenyl)-N-methyl-6-(N-methylmethylsulfonamido)benzofuran-3-carboxamide] | 2.9 | 5.91 |
